Read-outs that look alike come from different tables or passages of the source.
Experiments:
[1] = tested on: Klebsiella pneumoniae expressing VIM-1 (IHMA599644); assay: Antibiotic potentiation activity: synergistic concentration (MITC95) with imipenem, growth by OD600; assay type: cell-based
Method: (§1) Antibiotic Potentiation Activity: Determination of Synergistic Concentration
(§2) The bacterial strains tested included the clinical strains Escherichia coli expressing NDM-1 (CLB30005, CLB30016), Serratia marcescens expressing IMP-1 (CL5741), and Klebsiella pneumoniae expressing VIM-1 (IHMA599644). Inhibitor activity was measured in the presence and absence of imipenem or ceftazidime in a 384-well microplate.
(§3) The clinical strains CLB30016, CL5741, and IHMA599644 were grown on trypticase soy agar containing 5% sheep's blood. The clinical strain CLB30005 was grown on Mueller Hinton broth agar containing 8 μg/ml imipenem. The bacteria on agar plates were incubated overnight at 35° C. with ambient humidity (achieved from an open pan of water inside the incubator). The following day, individual colonies from each clinical strain were picked and resuspended in 5 ml saline to attain an OD600 of 0.14, 0.11, 0.15 and 0.13, for CLB30005, CLB30016, CL5741 and IHMA599644, respectively. These were further diluted 1:100 into 1.1×CAMHB and used to inoculate the test wells as described below.
(§4) Imipenem in 10 mM 3-(N-morpholino)propanesulfonic acid (MOPS, pH 7) was stored in single use aliquots at −80° C. Test inhibitors were dissolved in DMSO and diluted 1:50 in the assay, resulting in a final concentration range of 200 μM to 0.195 μM. On the day of the assay, 4 μl of antibiotic was added to 45 μl of bacteria followed by 1 μl of test compound and mixed by pipetting and with an orbital shaker. The concentration of antibiotic used in the assay was 1 μg/ml or 4 μg/ml. Microplates were covered and incubated at 35° C. for 22 hours to 24 hours. At the end of the incubation, absorbance was determined using a spectrophotometer. The synergistic concentration of MBLI was determined by identifying the lowest concentration of test compound in the presence of a given concentration of antibiotic that was required to inhibit 95% of the growth of the bacteria.
(§5) Representative compounds of the present invention display a synergistic effect. For example, representative compounds of EXAMPLES 1-456 were determined to restore susceptibility to imipenem at concentrations of 200 μM or less.

[2] = tested on: Escherichia coli expressing NDM-1 (CLB30016); assay: as above; assay type: cell-based
Method: as §1, §2, §3, §4, §5

[3] = tested on: Serratia marcescens expressing IMP-1 (CL5741); assay: as above; assay type: cell-based
Method: as §1, §2, §3, §4, §5

VIM-1 = VIM-1 (Pseudomonas aeruginosa, UniProt A0A0F7KYQ8); assay: Enzyme activity: determination of IC50, fluorescence assay with CCF2-FA substrate; assay type: biochemical; details: CCF2-FA 1.25 μM, 2 hours at 25° C., read-out: VIM1 IC50
Method: (§6) Enzyme Activity: Determination of IC50
(§7) The Class B enzyme activities were measured in the presence of a compound of the EXAMPLES as a test inhibitor in a fluorescence assay against a commercially available substrate consisting of a cephalosporin core linking 7-hydroxycoumarin to fluorescein (CCF2-FA; Life Technologies, Grand Island, N.Y.). The enzyme (NDM-1, IMP-1 or VIM-1) and the substrate were diluted in 100 mM KH2PO4 buffer (pH 7) containing 0.005% Tween-20 and 10 μM ZnSO4. In the assay, the final concentration of enzyme was 1 pM, 2 pM and 30 pM for NDM-1, IMP-1 and VIM-1, respectively, and the final concentration of CCF2-FA was 1.25 μM. The test inhibitor was dissolved in DMSO and diluted 1:50 in the assay, resulting in a final concentration range of 20 μM to 0.00063 μM. In a 384-well microplate, the test inhibitor was incubated with the metallo-β-lactamase enzyme and the substrate for 2 hours at 25° C. Fluorescence at 460 nm following excitation at 405 nm was measured. The IC50 value was determined from semi-logarithmic plots of enzyme inhibition versus inhibitor concentration, with a curve generated using a 4-parameter fit.

IMP-1 = IMP-1 (Serratia marcescens, UniProt P52699); assay: as above; assay type: biochemical; details: CCF2-FA 1.25 μM, 2 hours at 25° C., read-out: IMP1 IC50
Method: as §6, §7

NDM-1 = NDM-1 (Klebsiella pneumoniae, UniProt C7C422); assay: as above; assay type: biochemical; details: CCF2-FA 1.25 μM, 2 hours at 25° C., read-out: NDM1 IC50
Method: as §6, §7

[4] = 95% inhibition of bacterial growth, strain IHMA599644
[5] = 95% inhibition of bacterial growth, strain CLB30016
[6] = 95% inhibition of bacterial growth, strain CL5741
[7] = K. pneumoniae IHMA599644 (VIM-1), 95% inhibition of growth
[8] = E. coli CLB30016 (NDM-1), 95% inhibition of growth
[9] = S. marcescens CL5741 (IMP-1), 95% inhibition of growth

IMP-1, sequence (P52699 19-246, looked up, species assumed): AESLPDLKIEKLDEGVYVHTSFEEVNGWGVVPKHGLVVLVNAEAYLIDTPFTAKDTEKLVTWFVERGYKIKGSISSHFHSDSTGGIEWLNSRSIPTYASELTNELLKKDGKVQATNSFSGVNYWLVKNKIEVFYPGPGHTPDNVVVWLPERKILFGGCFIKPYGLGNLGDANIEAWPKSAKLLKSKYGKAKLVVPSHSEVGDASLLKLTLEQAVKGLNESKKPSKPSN
NDM-1, sequence (C7C422 29-270, looked up, species assumed): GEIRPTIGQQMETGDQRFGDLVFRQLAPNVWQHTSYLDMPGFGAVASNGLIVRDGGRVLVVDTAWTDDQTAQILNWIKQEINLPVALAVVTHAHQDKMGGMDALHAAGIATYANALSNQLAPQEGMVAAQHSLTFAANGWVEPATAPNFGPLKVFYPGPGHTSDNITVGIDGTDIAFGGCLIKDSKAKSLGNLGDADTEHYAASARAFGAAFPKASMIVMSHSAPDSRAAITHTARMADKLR

SMILES | VIM1 KP599644 MITC95 [1, 4] | NDM1 EC30016 MITC95 [2, 5] | IMP1 SM5741 MITC95 [3, 6] | IC50 (VIM-1; enzyme 30 pM) | IC50 (IMP-1; enzyme 2 pM) | IC50 (NDM-1; enzyme 1 pM) | VIM1 KP599644 MITC95 [1, 7] | NDM1 EC30016 MITC95 [2, 8] | IMP1 SM5741 MITC95 [3, 9] | IC50 (VIM-1; VIM-1 enzyme 30 pM) | IC50 (IMP-1; IMP-1 enzyme 2 pM) | IC50 (NDM-1; NDM-1 enzyme 1 pM)
CC(C)C[C@H](C(=O)O)[C@H](Cc1ccc(Br)cc1)c1nnn[nH]1 [Example 25, (2S)-2-[(1S)-2-(4-bromophenyl)-1-(1H-tetrazol-5-yl)ethyl]-4-methylpentanoic acid] | 12.5 µM | 4.7 µM | 3.1 µM | 2.6 nM | 87 nM | 32 nM | – | – | – | – | – | –
CCC[C@H](C(=O)O)[C@H](Cc1cccc(-c2ccnc(N)c2)c1)c1nn[nH]n1 [Example 349, (2S)-2-[(1S)-2-[3-(2-aminopyridin-4-yl)phenyl]-1-(2H-tetrazol-5-yl)ethyl]pentanoic acid] | – | – | – | – | – | – | 12.5 µM | 9.4 µM | 3.9 µM | 1.3 nM | 140 nM | 11 nM
CCC[C@H](C(=O)O)[C@H](Cc1ccccc1C#N)c1nnn[nH]1 [Example 43, (2S)-2-[(1S)-2-(2-cyanophenyl)-1-(1H-tetrazol-5-yl)ethyl]pentanoic acid] | 31 µM | 4.7 µM | 50 µM | 3.2 nM | 1600 nM | 22 nM | – | – | – | – | – | –
CCC[C@H](C(=O)O)[C@H](Cc1ccc(C2CCNC2)cc1)c1nnn[nH]1 (stereo partly drawn) [Example 413, (2S)-2-((1S)-2-(4-(pyrrolidin-3-yl)phenyl)-1-(1H-tetrazol-5-yl)ethyl)pentanoic acid] | – | – | – | – | – | – | 12.5 µM | 6.25 µM | 25 µM | 4.6 nM | 1100 nM | 146 nM
CCC[C@H](C(=O)O)[C@H](Cc1ccccc1-c1ccc(N)nc1)c1nn[nH]n1 [Example 398, (2S)-2-[(1S)-2-[2-(6-aminopyridin-3-yl)phenyl]-1-(2H-tetrazol-5-yl)ethyl]pentanoic acid] | – | – | – | – | – | – | 25 µM | 3.1 µM | 75 µM | 10 nM | 1100 nM | 1.6 nM
CCC[C@H](C(=O)O)[C@H](Cc1cccc(-c2cccnc2)c1)c1nn[nH]n1 [Example 339, (2S)-2-[(1S)-2-(3-pyridin-3-ylphenyl)-1-(2H-tetrazol-5-yl)ethyl]pentanoic acid] | – | – | – | – | – | – | 38 µM | 18.8 µM | 6.2 µM | 1.4 nM | 160 nM | 3.6 nM
CCC[C@H](C(=O)O)[C@H](Cc1cccc(-c2ccc(NS(C)(=O)=O)cc2)c1)c1nn[nH]n1 [Example 343, (2S)-2-[(1S)-2-{4′-[(methylsulfonyl)amino]biphenyl-3-yl}-1-(2H-tetrazol-5-yl)ethyl]pentanoic acid] | – | – | – | – | – | – | 18.8 µM | 25 µM | 0.39 µM | 2.4 nM | 22 nM | 11 nM
CC(C)[C@H](C(=O)O)[C@H](Cc1ccc(-c2ccc3c(c2)CNC3)nc1)c1nnn[nH]1 [Example 76, (2S,3S)-4-(6-(isoindolin-5-yl)pyridin-3-yl)-2-isopropyl-3-(1H-tetrazol-5-yl)butanoic acid] | 18.8 µM | 9.4 µM | 37.5 µM | 18 nM | 2600 nM | 120 nM | – | – | – | – | – | –
CCC[C@H](C(=O)O)[C@H](Cc1cnn2ncccc12)c1nnn[nH]1 [Example 156, (S)-2-((S)-2-(pyrazolo[1,5-b]pyridazin-3-yl)-1-(1H-tetrazol-5-yl)ethyl)pentanoic acid] | 25 µM | 31 µM | >200 µM | 1.5 nM | 5400 nM | 150 nM | – | – | – | – | – | –
CC(C)[C@H](C(=O)O)[C@H](Cc1ccc(-c2cn[nH]c2)cc1)c1nnn[nH]1 [Example 62, (2S,3S)-4-(4-(1H-pyrazol-4-yl)phenyl)-2-isopropyl-3-(1H-tetrazol-5-yl)butanoic acid] | 18.8 µM | 9.4 µM | 6.2 µM | 6.9 nM | 66 nM | 6.5 nM | – | – | – | – | – | –
CC(C)C[C@H](C(=O)O)[C@H](Cc1ccc(NC2CCNC2)nc1)c1nnn[nH]1 (stereo partly drawn) [Example 321, (2S)-4-methyl-2-[(1S)-2-[6-(pyrrolidin-3-ylamino)pyridin-3-yl]-1-(1H-tetrazol-5-yl)ethyl]pentanoic acid] | – | – | – | – | – | – | 18.8 µM | 3.1 µM | 18.8 µM | 5.1 nM | 1600 nM | 440 nM
CCC[C@H](C(=O)O)[C@H](Cc1cccc(N2CCNC(=O)C2)c1)c1nn[nH]n1 [Example 367, (2S)-2-[(1S)-2-[3-(3-oxopiperazin-1-yl)phenyl]-1-(2H-tetrazol-5-yl)ethyl]pentanoic acid] | – | – | – | – | – | – | >200 µM | >200 µM | >200 µM | 260 nM | > 20000 nM | 1400 nM
CC(C)C[C@H](C(=O)O)[C@H](Cc1ccc(N2CCC3(CC2)CNC3)nc1)c1nnn[nH]1 [Example 308, (2S)-2-[(1S)-2-[6-(2,7-diazaspiro[3.5]non-7-yl)pyridin-3-yl]-1-(1H-tetrazol-5-yl)ethyl]-4-methylpentanoic acid] | – | – | – | – | – | – | 25 µM | 3.1 µM | 9.4 µM | 32 nM | 370 nM | 120 nM
CCC[C@H](C(=O)O)[C@H](Cc1cnc(OC2CCNCC2)nc1)c1nnn[nH]1 [Example 289, (S)-2-((S)-2-(2-(piperidin-4-yloxy)pyrimidin-5-yl)-1-(1H-tetrazol-5-yl)ethyl)pentanoic acid] | – | – | – | – | – | – | 38 µM | 25 µM | >200 µM | 6.8 nM | > 20000 nM | 3100 nM
CC(C)(C)[C@H](C(=O)O)[C@H](Cc1ccc(C2CCNC2)cc1)c1nnn[nH]1.O=C(O)C(F)(F)F (stereo partly drawn) [Example 431, 3-(4-((2S,3R)-3-carboxy-4,4-dimethyl-2-(1H-tetrazol-5-yl)pentyl)phenyl)pyrrolidin-1-ium 2,2,2-trifluoroacetate] | – | – | – | – | – | – | 12.5 µM | 6.25 µM | 2.344 µM | 16.6 nM | 32.4 nM | 71.7 nM
CCC[C@H](C(=O)O)[C@H](Cc1ccc(C(=O)O)cc1)c1nn[nH]n1 [Example 283, 4-((2S,3S)-3-carboxy-2-(2H-tetrazol-5-yl)hexyl)benzoic acid] | – | – | – | – | – | – | 200 µM | 100 µM | 38 µM | 17 nM | 850 nM | 50 nM

Reference: patent publication US9839642B2, “Beta-tetrazolyl-propionic acids as metallo-beta-lactamase inhibitors” (priority 2014, dated 2017)
